Key:
Test in all cases: relative viability (nuclei count vs DMSO), 5 days (fraction); higher = more cells survive
Bexarotene + Vorinostat = compound: C=C(c1ccc(C(=O)O)cc1)c1cc2c(cc1C)C(C)(C)CCC2(C)C [Bexarotene] + O=C(CCCCCCC(=O)Nc1ccccc1)NO [Vorinostat] (partner 1 µM)
In short: (§1)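 Nuclei were stained with Hoechst during a one-step fixation (final 0.05% Triton X-100, 1% formaldehyde, 1 ug/ml Hoechst) carried out 5 days after dosing, then counted on 4× images. The cells, lung cancer lines in 1536-well plates, had been dosed by pin tool the day after seeding with one drug alone or a fixed anchor-drug dose plus five library-drug doses (not always all listed) in √10 steps. Relative viability is the nuclei count in treated wells divided by that in vehicle wells, and each value is the median of duplicate plates.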

Bexarotene + Crizotinib = compound: C=C(c1ccc(C(=O)O)cc1)c1cc2c(cc1C)C(C)(C)CCC2(C)C [Bexarotene] + C[C@@H](Oc1cc(-c2cnn(C3CCNCC3)c2)cnc1N)c1c(Cl)ccc(F)c1Cl [Crizotinib] (partner 1 µM)
In short: as §1

Bexarotene + Tozasertib = compound: C=C(c1ccc(C(=O)O)cc1)c1cc2c(cc1C)C(C)(C)CCC2(C)C [Bexarotene] + Cc1cc(Nc2cc(N3CCN(C)CC3)nc(Sc3ccc(NC(=O)C4CC4)cc3)n2)n[nH]1 [Tozasertib] (partner 0.1 µM)
In short: as §1

Bexarotene + Navitoclax = compound: C=C(c1ccc(C(=O)O)cc1)c1cc2c(cc1C)C(C)(C)CCC2(C)C [Bexarotene] + CC1(C)CCC(c2ccc(Cl)cc2)=C(CN2CCN(c3ccc(C(=O)NS(=O)(=O)c4ccc(N[C@H](CCN5CCOCC5)CSc5ccccc5)c(S(=O)(=O)C(F)(F)F)c4)cc3)CC2)C1 [Navitoclax] (partner 0.5 µM)
In short: as §1

| Cell Line | relative viability (Bexarotene + Vorinostat; first compound 0.08 µM) | relative viability (Bexarotene + Vorinostat; first compound 0.253 µM) | relative viability (Bexarotene + Vorinostat; first compound 0.8 µM) | relative viability (Bexarotene + Vorinostat; first compound 2.53 µM) | relative viability (Bexarotene + Vorinostat; first compound 8 µM) | relative viability (Bexarotene + Crizotinib; first compound 0.08 µM) | relative viability (Bexarotene + Crizotinib; first compound 0.253 µM) | relative viability (Bexarotene + Crizotinib; first compound 0.8 µM) | relative viability (Bexarotene + Crizotinib; first compound 2.53 µM) | relative viability (Bexarotene + Crizotinib; first compound 8 µM) | relative viability (Bexarotene + Tozasertib; first compound 0.08 µM) | relative viability (Bexarotene + Tozasertib; first compound 0.253 µM) | relative viability (Bexarotene + Tozasertib; first compound 0.8 µM) | relative viability (Bexarotene + Tozasertib; first compound 2.53 µM) | relative viability (Bexarotene + Tozasertib; first compound 8 µM) | relative viability (Bexarotene + Navitoclax; first compound 0.08 µM) | relative viability (Bexarotene + Navitoclax; first compound 0.253 µM) | relative viability (Bexarotene + Navitoclax; first compound 0.8 µM) | relative viability (Bexarotene + Navitoclax; first compound 2.53 µM) | relative viability (Bexarotene + Navitoclax; first compound 8 µM) |
| --- | --- | --- | --- | --- | --- | --- | --- | --- | --- | --- | --- | --- | --- | --- | --- | --- | --- | --- | --- | --- |
| CAL-12T | 0.723 | 0.837 | 0.887 | 0.529 | 0.655 | 0.73 | 0.608 | 0.466 | 0.564 | 0.489 | 0.264 | 0.309 | 0.227 | 0.276 | 0.244 | 1.14 | 1.26 | 1.39 | 1.13 | 1.02 |
| EPLC-272H | 0.398 | 0.671 | 0.492 | 0.681 | 0.484 | 0.877 | 0.971 | 0.854 | 0.853 | 0.772 | 0.278 | 0.262 | 0.307 | 0.286 | 0.341 | 1.16 | 1.09 | 1.01 | 0.974 | 0.96 |
| NCI-H2405 | 1.06 | 1.01 | 0.839 | 0.755 | 0.951 | 0.945 | 0.853 | 0.665 | 0.806 | 0.839 | 0.786 | 0.752 | 0.54 | 0.759 | 0.715 | 0.999 | 0.814 | 0.753 | 0.926 | 0.786 |
| HCC-15 | 0.877 | 0.892 | 0.823 | 0.889 | 0.81 | 0.842 | 0.924 | 0.789 | 0.837 | 0.783 | 0.357 | 0.531 | 0.415 | 0.44 | 0.34 | 0.726 | 0.793 | 0.703 | 0.617 | 0.602 |
| PC-3 [JPC-3] | 0.963 | 0.639 | 0.737 | 0.417 | 0.599 | 1.02 | 1.02 | 0.904 | 0.965 | 0.857 | 0.905 | 0.889 | 0.758 | 0.862 | 0.755 | 0.86 | 0.904 | 0.754 | 0.797 | 0.693 |
| NCI-H1944 | 0.74 | 0.683 | 0.669 | 0.675 | 0.532 | 1.3 | 1.17 | 1.18 | 1.26 | 1.02 | 0.323 | 0.29 | 0.307 | 0.299 | 0.257 | 1.03 | 0.97 | 0.945 | 0.972 | 0.986 |
| HARA | 0.655 | 0.512 | 0.584 | 0.606 | 0.51 | 1.15 | 0.993 | 0.885 | 0.948 | 0.798 | 0.0906 | 0.0857 | 0.156 | 0.0749 | 0.0939 | 1.23 | 1.27 | 1.17 | 1.07 | 0.854 |
| NCI-H2126 | 0.882 | 0.902 | 0.703 | 0.762 | 0.751 | 1.08 | 1.05 | 0.989 | 1.08 | 0.977 | 0.881 | 0.869 | 0.793 | 0.818 | 0.829 | 0.925 | 0.916 | 0.844 | 0.958 | 0.872 |
| LXF-289 | 0.906 | 0.907 | 0.861 | 0.789 | 0.935 | 0.901 | 0.994 | 1 | 0.979 | 0.973 | 0.166 | 0.196 | 0.213 | 0.137 | 0.141 | 1.11 | 1.09 | 1.08 | 1.1 | 0.974 |
| NCI-H460 | 0.812 | 0.752 | 0.644 | 0.716 | 0.67 | 0.91 | 1.1 | 0.908 | 0.845 | 0.766 | 0.541 | 0.452 | 0.481 | 0.399 | 0.427 | 1.31 | 1.18 | 1.05 | 0.993 | 0.918 |
| NCI-H2170 | 0.746 | 0.913 | 0.753 | 0.699 | 0.687 | 1.1 | 1.11 | 1.15 | 1.02 | 1.05 | 0.729 | 0.631 | 0.654 | 0.63 | 0.614 | 0.578 | 0.606 | 0.615 | 0.55 | 0.559 |
| NCI-H2009 | 0.692 | 0.86 | 0.845 | 0.76 | 0.834 | 1.16 | 0.882 | 1.08 | 1.08 | 1.06 | 0.753 | 0.897 | 0.814 | 0.815 | 0.778 | 1.24 | 1.28 | 1.23 | 1.17 | 1.19 |

Reference: the supplement of paper PMC10307832
